Experimental findings from US20250313574A1, “SIALIC ACID DERIVATIVES AND METHODS OF USING SAME” (EISAI R&D MANAGEMENT CO., LTD., priority 2022, published 2025) are described below.

Assay [1] addresses Recombinant human CD33 protein (Homo sapiens (Human), UniProt P20138). The assay is described as follows: CD33 competitive binding assay for HTS drug screen (fluorescent multivalent sialic acid probe). The essentials: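 Recombinant human CD33, coated overnight at 4° C from 10 μg/ml in pH 5.5 acetate, was preincubated briefly with compound. It was then exposed to a multivalent neutravidin/FITC/sialic acid analog A-375 probe (final 5 μM neutravidin, 15 μM A-375, 5 μM FITC) for 30 min at room temperature. After washing, bound FITC fluorescence was read.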

Assay [2] deals with Recombinant Human Siglec-3/CD33 protein (His-CD33) (Homo sapiens (Human), UniProt P20138). The assay is described as follows: Differential scanning fluorimetry (DSF) thermal shift assay. Format: binding. The method, then: In the DSF assay, as the temperature increases, the protein gets gradually unfolded, exposing hydrophobic regions in which a fluorescent dye binds causing the fluorescence signal to increase. The midpoint of the unfolding transitions is called the thermal melt (Tm) or denaturation temperature and the Tm was defined as the peak apex in the derivative curve. Here, the Tm temperature of CD33 in the presence and absence of A-001 at a concentration of 50 μM was examined.
Chain of Recombinant Human Siglec-3/CD33 protein (His-CD33) (P20138 18-259): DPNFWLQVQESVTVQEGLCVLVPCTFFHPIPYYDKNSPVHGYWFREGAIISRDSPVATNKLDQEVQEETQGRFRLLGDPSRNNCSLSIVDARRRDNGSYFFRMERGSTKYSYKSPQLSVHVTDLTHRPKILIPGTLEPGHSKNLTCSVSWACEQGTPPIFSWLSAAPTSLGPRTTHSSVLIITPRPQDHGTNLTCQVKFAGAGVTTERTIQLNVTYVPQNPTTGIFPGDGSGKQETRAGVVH
Recombinant Human Siglec-3/CD33 protein was purchased from Acros (catalog no. CD3-H5226) and reagents used in this study are shown in the Table 1 below.
Lyophilized CD33 protein was received in 1 mg aliquots from Acros. The protein was diluted with 2.5 mL of sterile water to a concentration of 400 μg/mL (14.5 μM), aliquoted into 138 μL aliquots and stored as at −20° C. On the day of analysis, the protein was thawed and […] solution was diluted to […] using buffer containing 133 mM NaCl, 133 mM phosphate buffered solution and 13.9× Sypro Orange dye in water in a quantity to cover the amount of samples tested on the day of the analysis.
200 μM stock solutions of A-001 containing 0.2% DMSO in water was supplied by compound management in a 384-well plate format.
Sample matrix were prepared by adding 7.5 μL of the protein buffer stock solution followed by addition of 2.5 μL of the 200 μM compound solutions in 384-well PCR plates to give a final volume of 10 μL per well consisting of 0.5 μM CD33 protein, 100 mM phosphate buffered solution pH 7.4, 100 mM NaCl, 10× SYPRO orange dye and 50 μM compound concentration (final DMSO concentration ˜0.2%). Using the Applied Biosystems® Protein Thermal Shift software (algorithm version 1.3.), the denaturation temperature or thermal melt (Tm) of the unbound and ligand bound CD33 protein was automatically assigned and the difference in thermal melt (ΔTm D) was calculated using the derivative curve by the Protein Thermal Shift software.
Recombinant human CD33 protein (0.5 μM) was incubated under buffered conditions in the presence of SYPRO orange dye, a temperature gradient was applied and a thermogram was produced by monitoring the fluorescence. The Tm was defined as the peak apex in the derivative curve in the study. […] Addition of […] of A-001 (Blue lines) to the CD33 protein induced significant Tm increases (ΔTm D) of 12.2±0.7° C.
(In DSF a fluorescence change marks the thermal transition of the protein.)

The mark [3] stands for this setting: difference in thermal melt of CD33 protein (0.5 μM) with 50 μM compound.
[4] abbreviates: thermal melt shift of 0.5 μM CD33 protein with 50 μM compound.

Chain of Recombinant human CD33 protein (P20138 18-259): as above

`Cc1cc2cc(C)c1OCCOC[C@@H](NC(=O)C1CCCOC1)COCCCC[C@]1(C(=O)O)C[C@H](O)[C@@H](NC(=O)Cn3cc(C4CCCCC4)nn3)[C@@H](O1)[C@H](O)[C@H](O)CNC2=O` (stereo partly drawn) [A-340]: the EC50 (as a rule, the concentration that produces a half-maximal response) in assay [1] was determined as 3.5 µM. For the same compound, the “DSF (dTmD)” value in assay [2] (setting [3]) amounted to 4.22 °C.
Take `CC(=O)N[C@H]1[C@H]([C@H](O)[C@H](O)CNC(=O)c2ccc(=O)[nH]c2)O[C@@](CCN2CCOC[C@@]23CCN(C(=O)OC(C)(C)C)C3)(C(=O)O)C[C@@H]1O` [A-171]: the EC50 in assay [1] is 10.3 µM. Also, the “DSF (dTmD)” value in assay [2] (setting [4]) worked out at 3.6.
As for `CC(=O)N[C@H]1[C@H]2O[C@](C(=O)O)(CCCCOC[C@@H](NC(=O)C3CCCOC3)COCCOc3c(C)cc(cc3C)C(=O)NC[C@@H](O)[C@H]2O)C[C@@H]1O` (stereo partly drawn) [A-342], the EC50 in assay [1] turned out to be 45.4 µM. The “DSF (dTmD)” value in assay [2] (setting [3]) is 1.5 °C.
Taken in the same sequence, the figures for `CC(=O)N[C@H]1[C@H]([C@H](O)[C@H](O)CNC(=O)c2cc(C)c(O)c(C)c2)O[C@@](C/C=C/c2cccc(CNC(=O)C3CCC(Nc4ncccn4)C3)c2)(C(=O)O)C[C@@H]1O` (stereo partly drawn) [A-255] were 4.46 µM and 4.2 °C.
As to `CC(=O)N[C@H]1[C@H]([C@H](O)[C@H](O)CNC(=O)c2cc(C)c(O)c(C)c2)O[C@@](CCN2CCOC[C@@]23CCN(C(=O)OC(C)(C)C)C3)(C(=O)O)C[C@@]1(C)O` [A-201], in assay [1], the EC50 came to 1.72 µM. Also, the “DSF (dTmD)” value in assay [2] (setting [3]) was found to be 6.2 °C.
For `Cc1cc(C(=O)NC[C@@H](O)[C@@H](O)[C@@H]2O[C@@](OC3CCCCC3NC(=O)CN(C)C(=O)OCc3cccc(C(=O)NC4CC4)c3)(C(=O)O)C[C@H](O)[C@H]2NC(=O)Cn2cc(C3CCCCC3)nn2)cc(C)c1O` (stereo partly drawn) [A-326] the same measures were 13.6 µM and 4.0 °C.
Taken in the same sequence, the figures for `CC(=O)N[C@H]1[C@H]([C@H](O)[C@H](O)CNC(=O)c2cc(C)c(O)c(C)c2)O[C@@](CC2OC(C)(C)O[C@H]2c2cccc(C(=O)NCc3ccccc3)c2)(C(=O)O)C[C@@H]1O` (stereo partly drawn) [A-311] were 6.36 µM and 0.5 °C.
As for `CCc1cccc(C(=O)NC[C@@H](O)[C@@H](O)[C@@H]2O[C@@](CCN3CCOC[C@@]34CCN(C(=O)OC(C)(C)C)C4)(C(=O)O)C[C@H](O)[C@H]2NC(C)=O)c1` [A-155], the EC50 in assay [1] was 0.2 µM. Moreover, the “DSF (dTmD)” value in assay [2] (setting [4]) is 10.1.
In the case of `CC(=O)N[C@H]1[C@H]([C@H](O)[C@H](O)CNC(=O)c2cc(C)c(O)c(C)c2)O[C@@](CC2OC(C)(C)O[C@H]2c2ccc(C)c(N3CCCC3=O)c2)(C(=O)O)C[C@@H]1O` (stereo partly drawn) [A-319], the EC50 in assay [1] is 4.22 µM. In addition, the “DSF (dTmD)” value in assay [2] (setting [3]) is 2.8 °C.
As to `CC(=O)N[C@H]1[C@H]([C@H](O)[C@H](O)CNC(=O)c2cc(C)c(O)c(C)c2)O[C@@](CC2OC(C)(C)O[C@H]2c2cccc(NC(=O)OC(C)(C)C)c2)(C(=O)O)C[C@@H]1O` (stereo partly drawn) [A-296], the EC50 in assay [1] amounted to 0.477 µM. Moreover, in assay [2] (setting [3]), the “DSF (dTmD)” value was determined as 6.4 °C.
Consider `CC(=O)N[C@H]1[C@H]([C@H](O)[C@H](O)CNC(=O)c2ccc3[nH]cnc3c2)O[C@@](CCN2CCOC[C@@]23CCN(C(=O)OC(C)(C)C)C3)(C(=O)O)C[C@@H]1O` [A-135], for which the EC50 in assay [1] was 0.101 µM. For the same compound, the “DSF (dTmD)” value in assay [2] (setting [4]) turned out to be 9.6.
Regarding `Cc1cc(C(=O)NC[C@@H](O)[C@@H](O)[C@@H]2O[C@@](OC3CCCCC3NC(=O)Cn3cc(CNC(=O)c4cccc(C#N)c4)nn3)(C(=O)O)C[C@H](O)[C@H]2NC(=O)Cn2cc(C3CCCCC3)nn2)cc(C)c1O` (stereo partly drawn) [A-330], the EC50 in assay [1] is 4.81 µM. Moreover, the “DSF (dTmD)” value in assay [2] (setting [3]) was 5.0 °C.
As to `COc1cc(C(=O)NC[C@@H](O)[C@@H](O)[C@@H]2O[C@@](CCN3CCOC[C@@]34CCN(C(=O)OC(C)(C)C)C4)(C(=O)O)C[C@H](O)[C@H]2NC(C)=O)cc(OC)c1OC` [A-148], the EC50 in assay [1] came out at 0.197 µM. The “DSF (dTmD)” value in assay [2] (setting [4]) was found to be 9.9.
As for `CC(=O)N[C@H]1[C@H]([C@H](O)[C@H](O)CNC(=O)c2cc(C)c(O)c(C)c2)O[C@@](C/C=C/c2cc(CNC(=O)C3CCCOC3)ccc2C)(C(=O)O)C[C@@H]1O` (stereo partly drawn) [A-289], the EC50 in assay [1] was determined as 2.68 µM. The “DSF (dTmD)” value in assay [2] (setting [3]) was 5.3 °C.
`CC(=O)N[C@H]1[C@H]([C@H](O)[C@H](O)CNC(=O)c2cc(C)c(O)c(C)c2)O[C@@](CCN2CCOC[C@@]23CCN(C(=O)OC(C)(C)C)C3)(C(=O)NC#N)C[C@@H]1O` [A-366]: the EC50 in assay [1] came to 2.83 µM. In addition, the “DSF (dTmD)” value in assay [2] (setting [3]) came out at 2.9 °C.
For `CC(=O)N[C@H]1[C@H]([C@H](O)[C@H](O)CNC(=O)c2cc(C)c(O)c(C)c2)O[C@@](CC2OC(C)(C)O[C@H]2c2cccc(NC(=O)CC(C)(C)C)c2)(C(=O)O)C[C@@H]1O` (stereo partly drawn) [A-303] the same measures were 1.5 µM and 4.9 °C.
For `CC(=O)N[C@H]1[C@H]([C@H](O)[C@H](O)CNC(=O)c2cc(C)c(O)c(C)c2)O[C@@](CCN2CCOC[C@@]23CCN(C(=O)C=C(C)C)C3)(C(=O)O)C[C@@H]1O` [A-078], the EC50 in assay [1] was 0.115 µM. Moreover, the “DSF (dTmD)” value in assay [2] (setting [4]) was determined as 9.4.
For `CC(=O)N[C@H]1[C@H]([C@H](O)[C@H](O)CNC(=O)c2cccc(Cl)c2)O[C@@](CCN2CCOC[C@@]23CCN(C(=O)OC(C)(C)C)C3)(C(=O)O)C[C@@H]1O` [A-182] the same measures were 0.073 µM and 11.7.
For `CC(=O)N[C@H]1[C@H]([C@H](O)[C@H](O)CNC(=O)c2cccc(C)c2)O[C@@](CCN2CCOC[C@@]23CCN(C(=O)OC(C)(C)C)C3)(C(=O)O)C[C@@H]1O` [A-181] the same measures were 0.07 µM and 10.9.
As to `CC(=O)N[C@H]1[C@H]([C@H](O)[C@H](O)CNC(=O)c2cc(-c3csc(C)n3)on2)O[C@@](CCN2CCOC[C@@]23CCN(C(=O)OC(C)(C)C)C3)(C(=O)O)C[C@@H]1O` [A-179], the half-maximal effective concentration (EC50) in assay [1] was 0.217 µM. Further, the “DSF (dTmD)” value in assay [2] (setting [4]) was found to be 7.7.
With `CC(=O)N[C@H]1[C@H]([C@H](O)[C@H](O)CNC(=O)c2cc(C)c(O)c(C)c2)O[C@@](CCN2CCN(C)C[C@]23CCN(C(=O)OC(C)(C)C)C3)(C(=O)O)C[C@@H]1O` [A-011], the EC50 in assay [1] is 1.63 µM. The “DSF (dTmD)” value in assay [2] (setting [4]) was determined as 3.9.
Consider `Cc1cc(C(=O)NC[C@@H](O)[C@@H](O)[C@@H]2O[C@@](C/C=C/c3cccc(CNC(=O)c4ccccc4C(F)(F)F)c3)(C(=O)O)C[C@H](O)[C@H]2NC(=O)Cn2cc(C3CCCCC3)nn2)cc(C)c1O` [A-269], for which the EC50 in assay [1] was 3.46 µM. Further, the “DSF (dTmD)” value in assay [2] (setting [3]) worked out at 6.5 °C.
Turning to `CC(=O)N[C@H]1[C@H]([C@H](O)[C@H](O)CNC(=O)c2cc(C)c(O)c(C)c2)O[C@@](C/C=C/c2cccc(CNC(=O)c3ccc4[nH]c(C(C)(C)CO)cc4c3)c2)(C(=O)O)C[C@@H]1O` [A-249], the EC50 in assay [1] worked out at 0.224 µM. In addition, the “DSF (dTmD)” value in assay [2] (setting [3]) was 8.1 °C.
For `CC(=O)N[C@H]1[C@H]2O[C@](C(=O)O)(C/C=C/c3cccc(c3)[C@@H](NC(=O)C3CCCOC3)CCCCc3cc(cc(Cl)c3O)C(=O)NC[C@@H](O)[C@H]2O)C[C@@H]1O` (stereo partly drawn) [A-353] the same measures were 19 µM and 3.6 °C.
Taken in the same sequence, the figures for `CC(=O)N[C@H]1[C@H]([C@H](O)[C@H](O)CNC(=O)c2cc(C)c(O)c(C)c2)O[C@@](C/C=C/c2cccc(CNC(=O)c3cccc(NCc4cncs4)c3)c2)(C(=O)O)C[C@@H]1O` [A-246] were 4 µM and 2.2 °C.
Taken in the same sequence, the figures for `COC(=O)[C@@]1(CCN2CCOC[C@@]23CCN(C(=O)OC(C)(C)C)C3)CCC[C@H](C[C@H](O)CNC(=O)c2cc(C)c3[nH]ccc3c2)O1` [A-206, tert-butyl (S)-6-(2-((2S,6R)-6-((S)-2-hydroxy-3-(7-methyl-1H-indole-5-carboxamido)propyl)-2-(methoxycarbonyl)tetrahydro-2H-pyran-2-yl)ethyl)-9-oxa-2,6-diazaspiro[4.5]decane-2-carboxylate] were more than 100 µM and 0.1 °C.
Regarding `CC(=O)N[C@H]1[C@H]([C@H](O)[C@H](O)CNC(=O)c2cc(C(F)(F)F)cc(C(F)(F)F)c2)O[C@@](CCN2CCOC[C@@]23CCN(C(=O)OC(C)(C)C)C3)(C(=O)O)C[C@@H]1O` [A-168], the EC50 in assay [1] came to 1.97 µM. Besides, the “DSF (dTmD)” value in assay [2] (setting [4]) is listed as 8.3.
